How the values were obtained:
[1] = molecular target: T1, CCKA (Cavia porcellus, UniProt Q63931); assay: CCKA radioligand binding assay in guinea-pig pancreas membranes ([125I]-CCK8(S)); conditions: PD134,308 present, 150 minutes at 21±3°; for Ki: read-out: CCKA pKi (converted)
T1 construct: The pancreatata were homogenised in 40 ml ice-cold HEPES buffer using a polytron; from tissue; host or cells: pancreas membranes of male Dunkin Hartley guinea-pigs
T1 sequence (Q63931 1-430): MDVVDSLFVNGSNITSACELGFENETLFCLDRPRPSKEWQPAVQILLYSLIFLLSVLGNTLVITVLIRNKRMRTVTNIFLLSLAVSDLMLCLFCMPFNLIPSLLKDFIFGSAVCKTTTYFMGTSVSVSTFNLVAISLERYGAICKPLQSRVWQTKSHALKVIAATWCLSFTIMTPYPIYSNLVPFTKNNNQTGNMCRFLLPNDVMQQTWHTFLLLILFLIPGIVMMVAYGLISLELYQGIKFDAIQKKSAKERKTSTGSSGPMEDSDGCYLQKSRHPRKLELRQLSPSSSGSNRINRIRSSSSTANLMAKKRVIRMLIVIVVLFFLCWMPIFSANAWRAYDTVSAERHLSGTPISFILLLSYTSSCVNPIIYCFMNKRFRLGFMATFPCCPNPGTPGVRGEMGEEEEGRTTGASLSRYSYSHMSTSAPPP
Method in brief: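 Male guinea-pig pancreas membranes (1 mg/ml wet tissue in HEPES pH 7.2, suspension containing 0.375 μM PD134,308) were incubated 150 min at 21±3° with [125I]-CCK8(S) ([…] added solution) and competitor. Non-specific binding used 100 nM L-364,718 (added solution). Bound radioligand was measured by GF/B filtration and gamma counting.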

[2] = molecular target: T2, gastrin (Rattus norvegicus, UniProt P30553); assay: gastrin antagonist activity in an immature rat stomach assay (pentagastrin-stimulated acid secretion); conditions: cumulative pentagastrin dose-response curves after 60 min with drug; for Kb: read-out: Gastrin pKB (converted)
T2 construct: The stomach was lowered into a jacketed organ bath containing 40 ml of buffered solution; from tissue; host or cells: isolated perfused whole stomach of immature rats (ca. 21 days old)
T2 sequence (P30553 1-452): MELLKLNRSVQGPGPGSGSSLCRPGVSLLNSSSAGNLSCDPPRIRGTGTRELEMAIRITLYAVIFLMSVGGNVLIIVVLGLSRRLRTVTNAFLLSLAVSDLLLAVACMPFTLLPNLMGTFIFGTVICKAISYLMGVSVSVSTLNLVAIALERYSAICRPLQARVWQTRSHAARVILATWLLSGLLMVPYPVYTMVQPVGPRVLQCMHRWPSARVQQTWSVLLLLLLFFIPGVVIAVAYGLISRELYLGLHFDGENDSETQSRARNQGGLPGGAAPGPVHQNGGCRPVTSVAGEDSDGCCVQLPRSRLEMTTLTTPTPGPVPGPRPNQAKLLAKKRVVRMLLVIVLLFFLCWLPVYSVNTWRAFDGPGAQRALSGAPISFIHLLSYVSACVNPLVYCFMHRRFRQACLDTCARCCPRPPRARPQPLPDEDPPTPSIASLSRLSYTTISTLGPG
Method in brief: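 Isolated lumen-perfused immature rat stomach (33-50 g, ca. 21 days) in 37° organ bath with 3×10^-8 M 5-methylfurmethide; acid secretion read by pH electrode in perfusate. Compound added to serosal bath after 120 min stabilisation; cumulative pentagastrin dose-response curves begun 60 min later and analysed by the Black et al. method.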

[3] = molecular target: T3, CCKB receptor (Mus musculus, UniProt P56481); assay: CCKB receptor radioligand binding assay in mouse cortical membranes ([125I]-CCK8S); conditions: [125I]-CCK8S 200 pM, 150 min at 21±3°; for Ki: read-out: CCKB pKi (converted)
T3 construct: The cortex was dissected, weighed and homogenised in 40ml ice-cold buffer; tissue Charles River (supplier of the CD1 mice); host or cells: cerebral cortex membranes of male CD1 mice
T3 sequence (P56481 1-453): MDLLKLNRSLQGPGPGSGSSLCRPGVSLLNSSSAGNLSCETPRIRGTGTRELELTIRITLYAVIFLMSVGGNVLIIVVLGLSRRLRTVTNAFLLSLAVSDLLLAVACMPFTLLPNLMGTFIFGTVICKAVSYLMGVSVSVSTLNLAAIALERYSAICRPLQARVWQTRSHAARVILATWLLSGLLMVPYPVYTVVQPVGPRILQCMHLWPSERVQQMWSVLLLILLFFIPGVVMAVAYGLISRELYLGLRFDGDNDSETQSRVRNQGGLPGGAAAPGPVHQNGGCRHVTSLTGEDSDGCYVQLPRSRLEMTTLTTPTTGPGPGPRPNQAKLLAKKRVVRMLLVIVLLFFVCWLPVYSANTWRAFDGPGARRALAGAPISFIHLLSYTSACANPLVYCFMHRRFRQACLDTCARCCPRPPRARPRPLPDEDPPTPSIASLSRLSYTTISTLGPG
Method in brief: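 Cortical membranes from male CD1 mice in HEPES buffer (pH 7.2; NaCl, KCl, MgCl2, EDTA, bacitracin) were incubated with competing compound and [125I]-CCK8S (added as a 200 pM solution) for 150 min at 21±3°. Non-specific binding was defined with L-365,260. Bound tracer was separated by GF/B filtration and counted by gamma counting.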

| Compound | CCKA pKi [1] | Gastrin pKB [2] | CCKB pKi [3] | Ki [1] | Kb [2] | Ki [3] |
| --- | --- | --- | --- | --- | --- | --- |
| O=C(NCC12CC3CC(CC(C3)C1)C2)c1cc2[nH]ccc2cc1C(=O)N[C@@H](Cc1ccccc1)C(=O)Nc1cc(NS(=O)(=O)C(F)(F)F)cc(NS(=O)(=O)C(F)(F)F)c1 [Example 93, 5-(1S-(3,5-di-trifluoromethylsulphonylaminophenylaminocarbonyl)-2-phenylethylaminocarbonyl)-6-(1-adamantanemethylaminocarbonyl)-indole] | 5.6 | 7.7 | 8.1 | – | – | – |
| CC(C)(C)NS(=O)(=O)c1cc(NC(=O)[C@H](Cc2ccccc2)NC(=O)c2cc3cc[nH]c3cc2C(=O)NCC23CC4CC(CC(C4)C2)C3)cc(S(=O)(=O)NC(C)(C)C)c1 [Example 95, 5-(1S-(3,5-di-tert-butylaminosulphonylphenylaminocarbonyl)-2-phenylethylaminocarbonyl)-6-(1-adamantanemethylaminocarbonyl)-indole] | 5.8 | 5.9 | 5.9 | – | – | – |
| O=C(NCC12CC3CC(CC(C3)C1)C2)c1cc2[nH]ccc2cc1C(=O)N[C@@H](Cc1ccccc1)C(=O)Nc1cccc(-c2nn[nH]n2)c1 [Example 100, 5-(1S-(3-tetrazolylphenylaminocarbonyl)-2-phenylethylaminocarbonyl)-6-(1-adamantanemethylaminocarbonyl)-indole] | – | – | – | 398 nM | 31.6 nM | 12.6 nM |
| O=C(NCC12CC3CC(CC(C3)C1)C2)c1cc2cc[nH]c2cc1C(=O)N[C@@H](Cc1ccccc1)C(=O)Nc1cc(-c2nn[nH]n2)cc(-c2nn[nH]n2)c1 [Example 105, 6-(1S-(3,5-ditetrazolylphenylaminocarbonyl)-2-phenylethylaminocarbonyl)-5-(1-adamantanemethylaminocarbonyl)-indole] | – | – | – | 158 nM | 3.16 nM | 5.01 nM |
| O=C(O)c1cc(NC(=O)[C@H](Cc2ccccc2)NC(=O)c2cc3cc[nH]c3cc2C(=O)NCC2CN3CCC2CC3)cc(C(=O)O)c1 (stereo partly drawn) [Example 108, 5-(1S-(3,5-dicarboxyphenylaminocarbonyl)-2-phenylethylaminocarbonyl)-6-(1-azabicyclo[2.2.2]oct-3-ylmethylaminocarbonyl)-indole] | – | – | – | > 10000 nM | 794 nM | 1260 nM |
| O=C(O)c1cc(NC(=O)[C@H](Cc2ccccc2)NC(=O)c2ccc3[nH]cnc3c2C(=O)NCC23CC4CC(CC(C4)C2)C3)cc(C(=O)O)c1 [Example 112, 5-(1S-(3,5-dicarboxyphenylaminocarbonyl)-2-phenylethylaminocarbonyl)-4-(1-adamantanemethylaminocarbonyl)-benzimidazole] | < 5.0 | 8.2 | 8.1 | – | – | – |
| O=C(NCC12CC3CC(CC(C3)C1)C2)c1cc2nc[nH]c2cc1C(=O)N[C@@H](Cc1ccccc1)C(=O)Nc1cc(C=NO)cc(C=NO)c1 [Example 118, 5-(1S-(3,5-dihydroxyiminomethylenephenylaminocarbonyl)-2-phenylethylaminocarbonyl)-6-(1-adamantanemethylaminocarbonyl)-benzimidazole] | – | – | – | 501 nM | 200 nM | 200 nM |
| COC(=O)c1cc(NC(=O)[C@H](Cc2ccccc2)NC(=O)c2cc3ccoc3cc2C(=O)NCC23CC4CC(CC(C4)C2)C3)cc(C(=O)OC)c1 [Example 124, 5-(1S-(3,5-dimethoxycarbonylphenylaminocarbonyl)-2-phenylethylaminocarbonyl)-6-(1-adamantanemethylaminocarbonyl)-benzofuran] | 5.7 | 6.8 | 6.5 | – | – | – |

More lines, now with the values ahead:

| CCKA pKi [1] | Gastrin pKB [2] | CCKB pKi [3] | Ki [1] | Kb [2] | Ki [3] | Compound |
| --- | --- | --- | --- | --- | --- | --- |
| 5.3 | 8.0 | 8.2 | – | – | – | O=C(O)c1cccc(NC(=O)[C@H](Cc2ccccc2)NC(=O)c2cc3cc[nH]c3cc2C(=O)NCC23CC4CC(CC(C4)C2)C3)c1 [Example 90, 5-(1S-(3-carboxyphenylaminocarbonyl)-2-phenylethylaminocarbonyl)-6-(1-adamantanemethylaminocarbonyl)-indole] |
| 5.3 | 8.0 | 7.4 | – | – | – | O=C(O)CNC(=O)[C@@H](Cc1ccccc1)NC(=O)c1cc2cc[nH]c2cc1C(=O)NCC12CC3CC(CC(C3)C1)C2 [Example 91, 5-(1R-(carboxymethylaminocarbonyl)-2-phenylethylaminocarbonyl)-6-(1-adamantanemethylaminocarbonyl)-indole] |
| 5.2 | 7.8 | 7.0 | – | – | – | CN(O)C(=O)c1cc(NC(=O)[C@H](Cc2ccccc2)NC(=O)c2cc3cc[nH]c3cc2C(=O)NCC23CC4CC(CC(C4)C2)C3)cc(C(=O)N(C)O)c1 [Example 103, 5-(1S-(3,5-dihydroxy-N-(methyl)aminocarbonylphenylaminocarbonyl)-2-phenylethylaminocarbonyl)-6-(1-adamantanemethylaminocarbonyl)-indole] |
| – | – | – | 316 nM | 2.51 nM | 1.26 nM | O=C(NCC12CC3CC(CC(C3)C1)C2)c1cc2[nH]ccc2cc1C(=O)N[C@@H](Cc1ccccc1)C(=O)Nc1cc(-c2nn[nH]n2)cc(-c2nn[nH]n2)c1 [Example 104, 5-(1S-(3,5-ditetrazolylphenylaminocarbonyl)-2-phenylethylaminocarbonyl)-6-(1-adamantanemethylaminocarbonyl)-indole] |
| 5.2 | 7.2 | 6.9 | – | – | – | O=C(O)c1cc(NC(=O)[C@H](Cc2ccccc2)NC(=O)c2c(C(=O)NCC34CC5CC(CC(C5)C3)C4)ccc3[nH]cnc23)cc(C(=O)O)c1 [Example 113, 4-(1S-(3,5-dicarboxyphenylaminocarbonyl)-2-phenylethylaminocarbonyl)-5-(1-adamantanemethylaminocarbonyl)-benzimidazole] |
| 5.6 | 8.2 | 7.6 | – | – | – | Nc1cccc2cc(C(=O)N[C@@H](Cc3ccccc3)C(=O)Nc3cc(C(=O)O)cc(C(=O)O)c3)c(C(=O)NCC34CC5CC(CC(C5)C3)C4)cc12 [Example 115, 2-(1S-(3,5-dicarboxyphenylaminocarbonyl)-2-phenylethylaminocarbonyl)-3-(1-adamantanemethylaminocarbonyl)-5-aminonaphthalene] |
